ChEMBL document CHEMBL5291721, “A preclinical secondary pharmacology resource illuminates target-adverse drug reaction associations of marketed drugs” (Nat Commun, 2023)

How the values were obtained:
[1] = target: T1, 5-hydroxytryptamine receptor 1A (Homo sapiens, UniProt P08908)
T1 sequence (P08908 whole entry): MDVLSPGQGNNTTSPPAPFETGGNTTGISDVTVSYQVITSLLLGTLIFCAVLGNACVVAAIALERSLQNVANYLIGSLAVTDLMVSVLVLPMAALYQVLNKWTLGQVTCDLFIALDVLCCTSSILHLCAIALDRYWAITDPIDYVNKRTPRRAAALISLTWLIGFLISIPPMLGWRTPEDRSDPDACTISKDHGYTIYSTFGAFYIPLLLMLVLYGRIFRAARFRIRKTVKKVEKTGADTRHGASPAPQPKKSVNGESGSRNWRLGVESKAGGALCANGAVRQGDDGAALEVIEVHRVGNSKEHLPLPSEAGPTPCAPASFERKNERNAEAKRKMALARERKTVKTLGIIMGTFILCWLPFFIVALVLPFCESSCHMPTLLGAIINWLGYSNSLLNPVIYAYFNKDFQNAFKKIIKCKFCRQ

Thromboxane A2 receptor = target: T2, Thromboxane A2 receptor (Homo sapiens, UniProt P21731); assay type: functional, cell-based
T2 sequence (P21731 whole entry): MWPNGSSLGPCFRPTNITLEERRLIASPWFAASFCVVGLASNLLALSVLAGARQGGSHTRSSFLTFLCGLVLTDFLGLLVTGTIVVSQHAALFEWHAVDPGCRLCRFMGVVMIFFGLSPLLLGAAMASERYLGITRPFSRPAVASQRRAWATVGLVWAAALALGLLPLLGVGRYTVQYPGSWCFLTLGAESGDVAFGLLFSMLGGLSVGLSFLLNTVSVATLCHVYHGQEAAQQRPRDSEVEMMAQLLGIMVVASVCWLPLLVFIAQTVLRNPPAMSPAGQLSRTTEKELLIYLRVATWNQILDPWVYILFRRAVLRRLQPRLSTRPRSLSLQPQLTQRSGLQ

D(3) dopamine receptor = D(3) dopamine receptor (Homo sapiens, UniProt P35462)
[2] = target: Sodium-dependent dopamine transporter (Homo sapiens, UniProt Q01959)
[3] = target: 5-hydroxytryptamine receptor 2B (Homo sapiens, UniProt P41595); assay type: functional, cell-based
[4] = target: cGMP-inhibited 3',5'-cyclic phosphodiesterase 3A (Homo sapiens, UniProt Q14432); assay type: functional
[5] = target: Sodium-dependent serotonin transporter (Homo sapiens, UniProt P31645)
Prothrombin = Prothrombin (Homo sapiens, UniProt P00734); assay type: functional
Acetylcholinesterase = Acetylcholinesterase (Homo sapiens, UniProt P22303); assay type: functional
Mu-type opioid receptor = Mu-type opioid receptor (Homo sapiens, UniProt P35372)
[6] = target: Prostaglandin G/H synthase 1 (Homo sapiens, UniProt P23219); assay type: functional
[7] = target: T3, Amine oxidase [flavin-containing] A (Homo sapiens, UniProt P21397); assay type: functional
T3 sequence (P21397 whole entry): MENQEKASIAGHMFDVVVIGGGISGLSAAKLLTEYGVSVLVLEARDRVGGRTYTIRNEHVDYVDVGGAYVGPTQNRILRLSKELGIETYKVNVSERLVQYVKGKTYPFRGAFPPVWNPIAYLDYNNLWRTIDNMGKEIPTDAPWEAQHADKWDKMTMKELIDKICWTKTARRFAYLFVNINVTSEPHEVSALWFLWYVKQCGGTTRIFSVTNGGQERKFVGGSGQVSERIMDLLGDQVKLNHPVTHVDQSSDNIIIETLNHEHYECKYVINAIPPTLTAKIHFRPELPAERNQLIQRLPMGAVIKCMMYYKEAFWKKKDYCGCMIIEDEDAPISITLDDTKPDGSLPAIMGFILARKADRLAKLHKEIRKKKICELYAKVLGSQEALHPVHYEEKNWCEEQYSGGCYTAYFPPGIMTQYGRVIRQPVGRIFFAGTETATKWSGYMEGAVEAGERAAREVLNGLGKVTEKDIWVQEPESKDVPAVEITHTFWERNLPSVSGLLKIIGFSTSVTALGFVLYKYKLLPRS

[8] = target: Voltage-gated inwardly rectifying potassium channel KCNH2 (Homo sapiens, UniProt Q12809); assay type: functional; details: read-out: AC50
[9] = target: T4, Alpha-1A adrenergic receptor (Homo sapiens, UniProt P35348); assay type: functional, cell-based
T4 sequence (P35348 whole entry): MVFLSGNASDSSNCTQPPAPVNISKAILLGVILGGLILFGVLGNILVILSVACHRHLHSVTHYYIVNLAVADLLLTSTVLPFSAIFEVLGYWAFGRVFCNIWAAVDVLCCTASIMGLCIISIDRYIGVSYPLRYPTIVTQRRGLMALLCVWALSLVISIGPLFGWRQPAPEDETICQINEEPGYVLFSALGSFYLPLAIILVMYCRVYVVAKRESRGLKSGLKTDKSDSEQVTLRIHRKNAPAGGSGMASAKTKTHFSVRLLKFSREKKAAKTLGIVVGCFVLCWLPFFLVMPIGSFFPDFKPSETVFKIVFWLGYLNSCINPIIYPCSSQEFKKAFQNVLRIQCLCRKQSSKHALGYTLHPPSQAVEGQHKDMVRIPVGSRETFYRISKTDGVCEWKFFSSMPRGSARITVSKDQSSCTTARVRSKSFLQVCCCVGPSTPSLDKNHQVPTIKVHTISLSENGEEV

Adenosine receptor A3 = target: T5, Adenosine receptor A3 (Homo sapiens, UniProt P0DMS8)
T5 sequence (P0DMS8 whole entry): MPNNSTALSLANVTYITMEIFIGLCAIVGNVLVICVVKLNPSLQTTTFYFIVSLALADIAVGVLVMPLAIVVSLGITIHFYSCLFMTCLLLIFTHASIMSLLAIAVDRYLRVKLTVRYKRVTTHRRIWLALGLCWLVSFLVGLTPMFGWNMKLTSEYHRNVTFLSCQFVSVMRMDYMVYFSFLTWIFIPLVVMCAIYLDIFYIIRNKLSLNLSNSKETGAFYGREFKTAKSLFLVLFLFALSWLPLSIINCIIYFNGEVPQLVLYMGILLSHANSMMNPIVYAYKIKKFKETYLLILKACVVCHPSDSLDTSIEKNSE

Measured: AC50
Note: assay procedure not described here.

Chain of Sodium-dependent dopamine transporter (Q01959 whole entry): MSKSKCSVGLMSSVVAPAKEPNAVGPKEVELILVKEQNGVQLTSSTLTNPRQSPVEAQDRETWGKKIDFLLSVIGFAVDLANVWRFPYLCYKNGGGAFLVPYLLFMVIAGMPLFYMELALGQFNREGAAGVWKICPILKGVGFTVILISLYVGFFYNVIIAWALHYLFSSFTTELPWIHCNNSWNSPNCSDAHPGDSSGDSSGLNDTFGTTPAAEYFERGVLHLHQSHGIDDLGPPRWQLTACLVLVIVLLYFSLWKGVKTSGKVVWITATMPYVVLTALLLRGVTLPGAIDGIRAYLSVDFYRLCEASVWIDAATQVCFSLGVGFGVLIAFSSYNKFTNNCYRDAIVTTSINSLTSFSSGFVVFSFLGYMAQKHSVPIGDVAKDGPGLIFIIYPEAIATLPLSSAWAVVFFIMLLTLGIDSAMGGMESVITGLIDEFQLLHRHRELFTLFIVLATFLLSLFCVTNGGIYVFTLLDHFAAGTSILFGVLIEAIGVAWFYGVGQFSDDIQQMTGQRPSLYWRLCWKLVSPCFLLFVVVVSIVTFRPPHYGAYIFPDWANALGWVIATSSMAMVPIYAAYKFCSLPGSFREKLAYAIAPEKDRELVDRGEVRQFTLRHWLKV
Chain of cGMP-inhibited 3',5'-cyclic phosphodiesterase 3A (Q14432 whole entry): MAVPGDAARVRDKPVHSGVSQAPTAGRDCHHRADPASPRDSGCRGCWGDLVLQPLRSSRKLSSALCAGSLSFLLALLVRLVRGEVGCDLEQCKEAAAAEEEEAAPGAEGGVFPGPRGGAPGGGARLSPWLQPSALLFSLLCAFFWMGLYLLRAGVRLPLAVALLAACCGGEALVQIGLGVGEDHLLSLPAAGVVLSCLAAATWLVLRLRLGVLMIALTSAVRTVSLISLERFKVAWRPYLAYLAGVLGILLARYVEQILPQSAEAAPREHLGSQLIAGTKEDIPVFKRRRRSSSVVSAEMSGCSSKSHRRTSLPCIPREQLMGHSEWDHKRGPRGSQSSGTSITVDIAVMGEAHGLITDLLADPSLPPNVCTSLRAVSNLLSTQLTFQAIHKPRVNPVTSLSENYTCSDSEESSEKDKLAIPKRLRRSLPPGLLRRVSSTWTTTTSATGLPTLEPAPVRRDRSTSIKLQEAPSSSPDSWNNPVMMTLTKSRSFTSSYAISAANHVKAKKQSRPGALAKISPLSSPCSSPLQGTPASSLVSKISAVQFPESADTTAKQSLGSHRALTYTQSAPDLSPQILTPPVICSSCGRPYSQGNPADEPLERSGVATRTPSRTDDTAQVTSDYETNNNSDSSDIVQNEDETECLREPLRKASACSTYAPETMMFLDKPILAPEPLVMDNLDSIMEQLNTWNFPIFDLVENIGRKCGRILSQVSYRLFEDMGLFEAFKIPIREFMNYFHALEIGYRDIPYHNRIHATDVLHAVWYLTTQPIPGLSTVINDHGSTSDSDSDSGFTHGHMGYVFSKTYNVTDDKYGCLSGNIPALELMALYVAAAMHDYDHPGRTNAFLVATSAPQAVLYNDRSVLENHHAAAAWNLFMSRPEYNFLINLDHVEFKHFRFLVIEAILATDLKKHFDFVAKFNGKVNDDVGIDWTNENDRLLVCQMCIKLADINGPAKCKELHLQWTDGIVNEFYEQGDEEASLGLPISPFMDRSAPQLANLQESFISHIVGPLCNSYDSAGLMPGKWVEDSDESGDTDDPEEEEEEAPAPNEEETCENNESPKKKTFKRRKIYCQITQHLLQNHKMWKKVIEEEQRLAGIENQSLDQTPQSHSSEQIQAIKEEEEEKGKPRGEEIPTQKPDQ
Chain of 5-hydroxytryptamine receptor 2B (P41595 whole entry): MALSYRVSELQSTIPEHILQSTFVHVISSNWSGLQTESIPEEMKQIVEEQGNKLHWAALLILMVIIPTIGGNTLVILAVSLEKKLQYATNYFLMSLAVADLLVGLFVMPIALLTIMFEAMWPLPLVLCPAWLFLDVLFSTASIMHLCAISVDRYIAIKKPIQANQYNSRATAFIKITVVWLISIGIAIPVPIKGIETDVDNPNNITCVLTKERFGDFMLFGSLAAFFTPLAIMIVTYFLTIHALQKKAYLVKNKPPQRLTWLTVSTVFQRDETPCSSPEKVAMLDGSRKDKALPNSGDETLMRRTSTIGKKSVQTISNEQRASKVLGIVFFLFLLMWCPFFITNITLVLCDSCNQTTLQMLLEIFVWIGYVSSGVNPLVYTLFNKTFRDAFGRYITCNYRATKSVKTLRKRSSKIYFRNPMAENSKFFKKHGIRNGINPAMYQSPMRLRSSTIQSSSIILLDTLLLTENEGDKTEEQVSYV
Chain of Voltage-gated inwardly rectifying potassium channel KCNH2 (Q12809 whole entry): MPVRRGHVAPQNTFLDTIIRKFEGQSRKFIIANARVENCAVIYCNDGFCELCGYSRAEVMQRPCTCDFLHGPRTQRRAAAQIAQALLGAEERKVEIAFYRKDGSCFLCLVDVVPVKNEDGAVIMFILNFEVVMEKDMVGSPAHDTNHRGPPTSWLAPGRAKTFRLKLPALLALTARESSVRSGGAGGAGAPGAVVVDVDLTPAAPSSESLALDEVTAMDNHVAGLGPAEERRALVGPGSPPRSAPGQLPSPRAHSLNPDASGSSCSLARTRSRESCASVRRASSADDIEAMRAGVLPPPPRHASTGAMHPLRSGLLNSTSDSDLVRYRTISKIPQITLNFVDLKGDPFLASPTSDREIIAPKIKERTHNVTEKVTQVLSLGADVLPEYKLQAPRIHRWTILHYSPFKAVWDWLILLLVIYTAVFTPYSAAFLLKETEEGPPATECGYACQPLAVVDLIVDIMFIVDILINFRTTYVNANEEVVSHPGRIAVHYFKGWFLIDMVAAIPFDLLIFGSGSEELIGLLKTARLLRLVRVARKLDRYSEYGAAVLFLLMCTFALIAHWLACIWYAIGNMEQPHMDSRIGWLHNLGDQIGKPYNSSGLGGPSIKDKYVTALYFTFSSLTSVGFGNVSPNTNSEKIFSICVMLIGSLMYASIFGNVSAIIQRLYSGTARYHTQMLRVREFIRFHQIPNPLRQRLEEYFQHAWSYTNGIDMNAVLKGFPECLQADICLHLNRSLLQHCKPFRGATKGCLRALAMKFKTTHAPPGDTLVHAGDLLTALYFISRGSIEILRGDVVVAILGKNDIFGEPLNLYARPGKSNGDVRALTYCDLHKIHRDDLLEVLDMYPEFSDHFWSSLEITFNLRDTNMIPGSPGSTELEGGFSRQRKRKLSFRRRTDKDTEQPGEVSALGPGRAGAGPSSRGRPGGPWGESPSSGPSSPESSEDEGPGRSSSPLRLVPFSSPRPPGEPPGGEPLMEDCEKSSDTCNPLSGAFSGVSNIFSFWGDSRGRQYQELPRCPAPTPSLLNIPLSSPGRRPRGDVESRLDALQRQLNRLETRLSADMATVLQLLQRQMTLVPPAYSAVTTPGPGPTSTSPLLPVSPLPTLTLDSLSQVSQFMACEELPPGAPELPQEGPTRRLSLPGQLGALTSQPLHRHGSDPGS
Chain of Mu-type opioid receptor (P35372 whole entry): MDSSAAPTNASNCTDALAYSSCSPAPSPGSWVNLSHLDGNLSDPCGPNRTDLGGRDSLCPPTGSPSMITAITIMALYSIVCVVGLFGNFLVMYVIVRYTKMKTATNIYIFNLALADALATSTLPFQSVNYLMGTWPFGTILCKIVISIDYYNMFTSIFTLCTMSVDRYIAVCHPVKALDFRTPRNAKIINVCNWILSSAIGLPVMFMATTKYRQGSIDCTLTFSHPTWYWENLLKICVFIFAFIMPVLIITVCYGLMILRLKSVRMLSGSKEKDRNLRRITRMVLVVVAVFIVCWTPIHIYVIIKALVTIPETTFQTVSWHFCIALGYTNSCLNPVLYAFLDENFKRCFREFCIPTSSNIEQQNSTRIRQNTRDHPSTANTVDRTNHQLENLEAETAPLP
Chain of Prostaglandin G/H synthase 1 (P23219 whole entry): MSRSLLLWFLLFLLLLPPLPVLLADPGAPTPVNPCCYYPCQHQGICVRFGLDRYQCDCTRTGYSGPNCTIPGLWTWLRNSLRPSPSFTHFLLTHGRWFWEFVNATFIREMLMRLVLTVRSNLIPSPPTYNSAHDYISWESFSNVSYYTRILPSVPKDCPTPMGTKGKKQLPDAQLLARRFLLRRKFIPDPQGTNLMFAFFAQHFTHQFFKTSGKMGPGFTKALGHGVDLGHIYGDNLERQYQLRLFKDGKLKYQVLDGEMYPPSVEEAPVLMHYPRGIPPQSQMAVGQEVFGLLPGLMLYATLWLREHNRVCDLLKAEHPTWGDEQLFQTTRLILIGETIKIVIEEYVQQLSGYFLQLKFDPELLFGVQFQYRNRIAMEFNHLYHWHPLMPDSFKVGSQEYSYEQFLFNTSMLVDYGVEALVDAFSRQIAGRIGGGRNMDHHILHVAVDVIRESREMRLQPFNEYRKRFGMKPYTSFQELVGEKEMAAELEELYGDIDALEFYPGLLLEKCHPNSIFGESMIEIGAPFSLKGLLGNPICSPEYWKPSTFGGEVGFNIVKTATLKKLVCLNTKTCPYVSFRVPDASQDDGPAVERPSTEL
Chain of Acetylcholinesterase (P22303 whole entry): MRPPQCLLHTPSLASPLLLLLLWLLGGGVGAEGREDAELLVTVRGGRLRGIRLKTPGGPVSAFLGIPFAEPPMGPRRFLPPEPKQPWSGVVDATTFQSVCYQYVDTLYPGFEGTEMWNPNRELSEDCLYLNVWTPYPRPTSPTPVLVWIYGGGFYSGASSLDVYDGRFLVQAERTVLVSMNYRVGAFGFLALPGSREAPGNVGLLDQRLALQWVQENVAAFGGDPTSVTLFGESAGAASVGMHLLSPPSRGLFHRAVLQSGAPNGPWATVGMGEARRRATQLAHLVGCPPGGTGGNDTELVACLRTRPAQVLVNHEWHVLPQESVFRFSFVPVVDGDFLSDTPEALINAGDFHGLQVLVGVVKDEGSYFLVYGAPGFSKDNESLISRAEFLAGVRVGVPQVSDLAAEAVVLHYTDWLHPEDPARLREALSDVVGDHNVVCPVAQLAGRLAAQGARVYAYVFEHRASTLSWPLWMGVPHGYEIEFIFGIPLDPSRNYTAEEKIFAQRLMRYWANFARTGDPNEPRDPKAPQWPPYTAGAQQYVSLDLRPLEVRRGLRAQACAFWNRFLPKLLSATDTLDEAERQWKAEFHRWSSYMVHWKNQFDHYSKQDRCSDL

C[C@@H](O)[C@H]1C(=O)N2C(C(=O)O)=C(S[C@@H]3CN[C@H](C(=O)Nc4cccc(C(=O)O)c4)C3)[C@H](C)[C@H]12
10.2 µM: [6]
not listed: [8] | [9] | Adenosine receptor A3
> 30 µM: all other assays above

CC(=O)OC1CN2CCC1CC2 (stereo not drawn) [ACECLIDINE]
not listed: [8] | [9] | Adenosine receptor A3
> 30 µM: all other assays above

CC(=O)Nc1ccc(/C=N/NC(N)=S)cc1 [AMITHIOZONE]
> 10 µM: [7]
not listed: [8] | [9] | Adenosine receptor A3
> 30 µM: all other assays above

O=C(OOC(=O)c1ccccc1)c1ccccc1 [BENZOYL PEROXIDE]
9.02 µM: Prothrombin
not listed: Adenosine receptor A3
> 30 µM: all other assays above

CC(C)(C)NCC(O)COc1ccccc1C#N (stereo not drawn) [BUNITROLOL]
10.4 µM: [7]
0.0086 µM: [1]
not listed: Adenosine receptor A3
> 30 µM: all other assays above

CC1(C)C[C@@H]1C(=O)N/C(=C\CCCCSC[C@H](N)C(=O)O)C(=O)O [CILASTATIN]
not listed: Adenosine receptor A3
> 30 µM: all other assays above

COc1c(OCCCN2CCOCC2)ccc2c1N=C(NC(=O)c1cnc(N)nc1)N1CCN=C21 [COPANLISIB]
not listed: [8] | Adenosine receptor A3
> 30 µM: all other assays above

CC(NCCC(c1ccccc1)c1ccccc1)c1ccccc1 (stereo not drawn) [FENDILINE]
20.7 µM: Thromboxane A2 receptor
26.8 µM: Adenosine receptor A3
> 3 µM: Prothrombin
3.48 µM: [2]
0.721 µM: Mu-type opioid receptor
7.94 µM: [5]
9.87 µM: D(3) dopamine receptor
1.3 µM: [8]
14.9 µM: [1]
not listed: [9]
> 30 µM: all other assays above

CSCC[C@H](N)C(=O)O [METHIONINE]
not listed: [8] | [9] | Adenosine receptor A3
> 30 µM: all other assays above

COc1ccc(C(=O)c2ccccc2)c(O)c1 [OXYBENZONE]
16.5 µM: [2]
> 10 µM: [9]
not listed: Adenosine receptor A3
> 30 µM: all other assays above

OC(CN1CCCCC1)c1cc(-c2ccccc2)on1 (stereo not drawn) [PERISOXAL]
15.2 µM: D(3) dopamine receptor
27.4 µM: Mu-type opioid receptor
not listed: [8] | [9] | Adenosine receptor A3
> 30 µM: all other assays above

COc1ncnc(NS(=O)(=O)c2ccc(N)cc2)c1OC [SULFADOXINE]
not listed: [5]
> 30 µM: all other assays above

CC(C)N1CCN(c2ccc(OCC3COC(Cn4cncn4)(c4ccc(Cl)cc4Cl)O3)cc2)CC1 (stereo not drawn) [TERCONAZOLE]
7.12 µM: D(3) dopamine receptor
16.5 µM: Acetylcholinesterase
20 µM: Thromboxane A2 receptor
16 µM: [9]
6.9 µM: [8]
7.14 µM: [2]
not listed: [5]
> 30 µM: all other assays above

Cc1ccc(O)c([C@H](CCN(C(C)C)C(C)C)c2ccccc2)c1 [TOLTERODINE]
24.7 µM: [9]
> 30 µM: [1] | D(3) dopamine receptor | [2] | [3] | Acetylcholinesterase | Mu-type opioid receptor | [7]
20.3 µM: [5]

CC(=O)O[C@]1(C(C)=O)CC[C@H]2[C@@H]3CCC4=CC(=O)CCC4=C3[C@@H](c3ccc(N(C)C)cc3)C[C@@]21C [ULIPRISTAL ACETATE]
22.5 µM: Mu-type opioid receptor
not listed: [8] | Adenosine receptor A3
> 30 µM: all other assays above
